From BindingDB's records for doi:10.1016/j.bmc.2008.11.012 (Nippon Shinyaku, 2009)

Key:
Nociceptin receptor = Nociceptin receptor (Homo sapiens, UniProt P41146); assay: Receptor Binding Assay; conditions: pH 7.8; 25 °C
Procedure: (§1) Competitive binding displacement analysis was performed with membranes prepared from CHO-K1 cells stably expressing receptors. After incubation, samples were collected on GF/B glass-fiber, washed, and counted for radioactivity. IC50 values were obtained by fitting the competition binding curves according to a 4-parameter logistic model. Inhibition constants Ki were derived from the Cheng-Prusoff equation.

Mu-type opioid receptor = Mu-type opioid receptor (Rattus norvegicus, UniProt P33535); assay: Receptor Binding Assay
Procedure: as §1

Chain of Mu-type opioid receptor (P33535 whole entry): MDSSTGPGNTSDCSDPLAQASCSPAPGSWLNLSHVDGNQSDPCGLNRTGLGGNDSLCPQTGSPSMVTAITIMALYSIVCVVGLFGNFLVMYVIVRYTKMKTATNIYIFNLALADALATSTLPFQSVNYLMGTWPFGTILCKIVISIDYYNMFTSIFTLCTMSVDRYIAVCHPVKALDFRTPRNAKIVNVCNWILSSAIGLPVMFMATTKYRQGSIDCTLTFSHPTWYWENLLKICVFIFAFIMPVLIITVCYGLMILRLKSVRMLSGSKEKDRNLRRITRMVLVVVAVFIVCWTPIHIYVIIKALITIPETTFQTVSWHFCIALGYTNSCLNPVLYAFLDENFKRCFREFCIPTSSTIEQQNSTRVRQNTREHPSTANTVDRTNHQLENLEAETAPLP
Chain of Nociceptin receptor (P41146 whole entry): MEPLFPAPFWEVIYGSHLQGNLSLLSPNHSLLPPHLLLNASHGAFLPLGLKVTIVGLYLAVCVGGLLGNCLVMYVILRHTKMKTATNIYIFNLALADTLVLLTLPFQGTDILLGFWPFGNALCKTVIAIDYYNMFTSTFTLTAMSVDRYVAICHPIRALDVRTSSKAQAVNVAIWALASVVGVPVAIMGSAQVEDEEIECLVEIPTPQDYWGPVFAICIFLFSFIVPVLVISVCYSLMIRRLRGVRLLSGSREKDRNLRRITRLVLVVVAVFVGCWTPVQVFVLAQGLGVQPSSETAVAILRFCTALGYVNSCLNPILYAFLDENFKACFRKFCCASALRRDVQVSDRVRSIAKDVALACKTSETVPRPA

SMILES | Ki (Nociceptin receptor) [nM] | Ki (Mu-type opioid receptor) [nM]
Cc1ccc2nc(C=Cc3ccc(Cl)cc3)nc(N[C@H]3CC[C@@H](N=C(N)N)CC3)c2c1 [4-({2-[(E)-2-(4-chlorophenyl)ethenyl]-6-methylquinazolin-4-yl}amino)cyclohexane-1-guanidine] | 152 | 60
Cc1ccc2nc(C=Cc3ccc(Cl)cc3)nc(N[C@H]3CCCC[C@H]3NC(=N)N)c2c1 (racemic) [(1R,2S)-2-({2-[(E)-2-(4-chlorophenyl)ethenyl]-6-methylquinazolin-4-yl}amino)cyclohexane-1-guanidine] | 43 | 220
